This is an account of results in patent US20050245461A1, “Methods for treating alcoholism” (priority 2004, published 2005).

Entries after “also recorded” stand apart in the source; their conditions may differ. Where two headings read alike, the source gives them in different places.

The test system of data set [1] is ethanol drinking (lever presses for ethanol cocktail). As to the kind of experiment: rat model of alcohol self-administration (operant lever pressing for 10% ethanol cocktail). The following applies: for effect on naltrexone's ability to decrease drinking when coadministered: coadministered with naltrexone, conclusion of Example 1; for ED50: Rattus norvegicus; for Lever Presses (Mean ± SEM): 30 min session.
Experimental: Male Wistar rats (starting weight of 200±30 grams; Charles River Laboratories, MA) were individually housed with free access to food and water. […] These conditions were recorded once daily throughout the study.
Animals were trained daily in an operant chamber to press a lever to receive access to an ethanol cocktail as a reinforcer using a saccharin fading procedure. […] The final ethanol cocktail contained 10% ethanol in 0.04% saccharine. Each session lasted 30 minutes, during which the rat could press the lever twice to gain access to 0.1 mL of the ethanol cocktail. The operant chamber (Coulbourn Instruments, Allentown, Pa.) is a computer-controlled automated system which recorded the number of lever presses completed by a rat. At the end of the training period (6-8 weeks), rats which consistently drank a sufficient quantity of ethanol to produce a pharmacological effect (minimum intake of 0.6 g/kg/hour) were selected to participate in the drug studies. These trained rats were used repeatedly throughout these studies to control for intra-subject variability. All drugs were administered acutely with a minimum of a 2 day drug washout period.
Naltrexone was prepared daily in 0.9% saline and administered subcutaneously (SC). The anticonvulsants (gabapentin, carbamazepine, levetiracetam and lamotrigine) were suspended in 3% carboxymethyl cellulose; a total volume of 1 mL/kg of this suspension was delivered orally (PO) to the rat using a gavage tube.
The ability of naltrexone to reduce ethanol drinking (i.e., decrease the number of lever presses) was assessed in this animal model of self administration of ethanol. […] The total number of lever presses was recorded over the 30 minute test session. […] An anticonvulsant (gabapentin, carbamazepine, levetiracetam or lamotrigine) was coadministered with naltrexone to determine if it affected naltrexone's ability to decrease ethanol drinking. […] This dose allows one to determine if the co-administered drugs impaired or enhanced naltrexone's effect on ethanol drinking. The anticonvulsants were administered orally 30 minutes prior to a naltrexone injection (SC) (i.e., 60 minutes prior to the beginning of the ethanol drinking test session). The number of lever presses for the ethanol cocktail was recorded at the end of the 30 minute session.

The test system of data set [2] is alcohol withdrawal. As to conditions: literature (Myrick 1998; Karam-Hage 2000; Minuk 1995); cited from earlier work.
The subject of data set [3] is audiogenic-induced convulsions. Nature of the data set: audiogenic-induced convulsions in mouse model of alcohol withdrawal.
Experimental: These conditions were recorded once daily throughout the study.
Alcohol is provided in a nutritionally balanced liquid diet.
Data set [4] in a line: pharmacokinetic study: naltrexone in plasma alone or coadministered with gabapentin. The class given is in vivo, rat. As to conditions: vehicle+naltrexone vs gabapentin+naltrexone (gabapentin 1 mg/kg, naltrexone 0.5 mg/kg), rats. The procedure: FIG. 3C is a line graph showing the amount of naltrexone in the plasma over a period of time for naltrexone administered alone or naltrexone coadministered with gabapentin.
To determine if this drug interaction might be effective in decreasing ethanol drinking with lower doses of naltrexone, the dose of gabapentin (1 mg/kg) was kept constant and the dose of naltrexone varied from 0.05 to 3.0 mg/kg (FIG. 3B). […] To determine if gabapentin may be altering the plasma profile of naltrexone at this dose combination, a pharmacokinetic study was run in a separate cohort group of rats.

Where [5] appears, read: anticonvulsant 0.1 mg/kg PO + naltrexone 0.1 mg/kg SC.
Where [6] appears, read: anticonvulsant 1.0 mg/kg PO + naltrexone 0.1 mg/kg SC.
The mark [7] stands for this setting: anticonvulsant 10.0 mg/kg PO + naltrexone 0.1 mg/kg SC.

For the compound `Nc1nnc(-c2cccc(Cl)c2Cl)c(N)n1` [Lamotrigine, 6-(2,3-dichlorophenyl)-1,2,4-trizine-3,5-diamine], the figures for the “Number of Lever Presses (mean ± sem)” value in data set [1] (setting [5]), in data set [1] (setting [6]) and in data set [1] (setting [7]) were 61 ± 13, 60 ± 13 and 567 ± 10, respectively. Also, the “effect on naltrexone's ability to decrease drinking when coadministered” value in data set [1] was “did not impair or block”. The “effect of combination with naltrexone on number of lever presses for ethanol” value in data set [1] (lamotrigine 0.1-10 mg/kg PO + naltrexone 0.1 mg/kg SC) is reported as “did not significantly affect”.

Regarding `CC[C@@H](C(N)=O)N1CCCC1=O` (single isomer, unassigned) [Levetiracetam], the “Number of Lever Presses (mean ± sem)” value is on record as 34 ± 11 in data set [1] (anticonvulsant 1.0 mg/kg PO + naltrexone 0.5 mg/kg SC), 36 ± 8 in data set [1] (anticonvulsant 10.0 mg/kg PO + naltrexone 0.5 mg/kg SC) and 34 ± 9 in data set [1] (anticonvulsant 100.0 mg/kg PO + naltrexone 0.5 mg/kg SC). In addition, the “effect on naltrexone's ability to decrease drinking when coadministered” value in data set [1] is “did not impair or block”. The “difference between naltrexone (with vehicle) and combination with naltrexone, lever presses” value in data set [1] (levetiracetam 1-100 mg/kg PO + naltrexone 0.5 mg/kg SC) is on record as “no significant differences”.

As to “1-(aminomethyl)cyclohexane acetic acid [Gabapentin]”, the “safety and efficacy as alternatives to benzodiazepines for the treatment of alcohol withdrawal” value in data set [2] was “safe and efficacious”. The “effect on naltrexone's ability to decrease drinking when coadministered” value in data set [1] was “did not impair or block”. Further, the “enhancement of naltrexone's effect on alcohol drinking” value in data set [1] (coadministration of gabapentin, narrow therapeutic window) is “enhanced naltrexone's effects of alcohol drinking”. For the same compound, in data set [1] (gabapentin 1 mg/kg PO plus naltrexone 0.5 mg/kg SC, p<0.006), the “ethanol drinking, combination compared to naltrexone alone” value is “further significant decrease”. Moreover, the “difference in number of lever presses, naltrexone alone vs combined with gabapentin” value in data set [1] (gabapentin 1 mg/kg constant, naltrexone 0.05 to 3.0 mg/kg, except at 0.5 mg/kg naltrexone) is “No differences”. The “potentiation of naltrexone's decrease in ethanol drinking” value in data set [1] (gabapentin 0.1 and 10.0 mg/kg coadministered with naltrexone 0.5 mg/kg) is “not seen”. In data set [1] (gabapentin alone, 1 or 10 mg/kg), the “effect on lever pressing for ethanol compared to non-drug treated conditions” value was “neither gabapentin at 1 or 10 mg/kg alone had any effect”.

For the compound `NC(=O)N1c2ccccc2C=Cc2ccccc21` [Carbamazepine, 5H-dibenz [b,f] azepine-5-carboxamide], the “Number of Lever Presses (mean ± sem)” value is 68 ± 10 in data set [1] (setting [5]), 49 ± 8 in data set [1] (setting [6]) and 48 ± 9 in data set [1] (setting [7]). Besides, the “effect of combination with naltrexone on ethanol drinking” value in data set [1] (carbamazepine 0.1-10.0 mg/kg PO + naltrexone 0.1 mg/kg) was “did not significantly affect”. For the same compound, the “effect on naltrexone's ability to decrease drinking when coadministered” value in data set [1] is “did not impair or block”. Further, the “Withdrawal Rating (mean ± sem), behavioral response scale of 1-4” value in data set [3] (carbamazepine 10 mg/kg PO + saline) was 1.1 ± 0.1. For the same compound, the “difference between drug groups on the audiogenic convulsion test” value in data set [3] (carbamazepine 10 mg/kg with/without naltrexone 3 mg/kg, p=0.18) is on record as “no statistical differences”.

As for `CCCC(CCC)C(=O)O` [valproic acid, 2-propylpentanoic acid], in data set [2], the “safety and efficacy as alternatives to benzodiazepines for the treatment of alcohol withdrawal” value was “safe and efficacious”.

What is called ED50 is the midpoint of the dose-response relation. Turning to `O=C1CC[C@@]2(O)[C@H]3Cc4ccc(O)c5c4[C@@]2(CCN3CC2CC2)[C@H]1O5` [Naltrexone], the 50% effective dose (ED50) is 0.1 mg/kg in data set [1] (read-out: ED50 re-established); 0.5 mg/kg in data set [1] (sc, read-out: ED50 (dose reducing lever responding for ethanol by approximately 50% compared to baseline)); 0.1 to 0.5 mg/kg in data set [1] (sc, read-out: ED50 for decrease in number of lever presses). Also, the “decrease in lever presses vs baseline and vehicle control” value in data set [1] (lowest dose of naltrexone tested, 0.05 mg/kg) is given as “no significant decrease”. Further, in data set [1] (naltrexone 0-6 mg/kg SC), the “dose dependence of decrease in number of lever presses” value is recorded as “dose-dependent decrease”. Further, the “Approximate Absolute Ethanol Consumed” value in data set [1] (naltrexone 0.05 mg/kg SC) is ~1.0 g/kg; in data set [1] (naltrexone 0.1 mg/kg SC), ~0.7 g/kg; in data set [1] (naltrexone 0.5 mg/kg SC), ~0.6 g/kg; in data set [1] (naltrexone 1.0 mg/kg SC) it was ~0.3 g/kg; in data set [1] (naltrexone 3.0 mg/kg SC), ~0.2 g/kg; in data set [1] (naltrexone 6.0 mg/kg SC), ~0.2 g/kg. The “Lever Presses (Mean ± SEM)” value in data set [1] (naltrexone 0.05 mg/kg SC) turned out to be 132 ± 13.3; in data set [1] (naltrexone 0.1 mg/kg SC), 88 ± 8.6; in data set [1] (naltrexone 0.5 mg/kg SC), 83 ± 12.1; in data set [1] (naltrexone 1.0 mg/kg SC), 43 ± 8.6; in data set [1] (naltrexone 3.0 mg/kg SC) it was 24 ± 8.1; in data set [1] (naltrexone 6.0 mg/kg SC) it was 21 ± 5.5. Besides, in data set [1] (naltrexone 0.1 mg/kg, carbamazepine study), the “decrease in number of lever presses from the baseline” value is 42.4%. Further, the “decrease in lever responding for ethanol compared to non-drug baseline” value stood at 65% in data set [1] (naltrexone 0.5 mg/kg SC, levetiracetam study) and 49% in data set [1] (naltrexone alone (0.1 mg/kg SC), lamotrigine study). Further, the “specificity of decrease in drinking for ethanol versus saccharine” value in data set [1] (naltrexone 0.5 mg/kg SC, 0.1% saccharine solution substituted for ethanol cocktail) is recorded as “specific for ethanol; also recorded: selective for decreasing ethanol drinking”. Further, the “effect on decreasing ethanol drinking at higher doses” value in data set [1] (naltrexone 3 and 6 mg/kg) is listed as “appeared to plateau”. Further, the “decrease in number of lever presses for ethanol compared to non-drug baseline” value in data set [1] (naltrexone ED50 dose (0.5 mg/kg), gabapentin study) worked out at 54%. For the same compound, in data set [1] (naltrexone alone 0.5 mg/kg, additional testing, most of the animals), the “reduction in lever pressing for ethanol” value was “greater than 50%”. Moreover, the “Number of Lever Presses (mean ± sem)” value in data set [1] (vehicle (drug dose 0.0) PO + naltrexone 0.1 mg/kg SC, carbamazepine study) is listed as 67 ± 17; in data set [1] (vehicle (drug dose 0.0) PO + naltrexone 0.1 mg/kg SC, lamotrigine study) it was 74 ± 18; in data set [1] (vehicle (drug dose 0.0) PO + naltrexone 0.5 mg/kg SC, levetiracetam study), 50 ± 10. In data set [4], the “plasma profile of naltrexone, difference between treatment groups” value is recorded as “no statistical difference”. Moreover, the “exacerbation of audiogenic-induced convulsions” value in data set [3] (naltrexone 3 mg/kg with carbamazepine 10 mg/kg, mice with alcohol withdrawal symptoms) is reported as “did not exacerbate”. The “interaction with carbamazepine's anticonvulsant activity” value in data set [3] (naltrexone 3 mg/kg, carbamazepine 10 mg/kg) is on record as “did not appear to interact”.
